According to patent publication US9050371B2 (Eli Lilly and Company, priority 2008, dated 2015):

Key:
healthy volunteers = assay: Euglycaemic glucose clamp (glucose infusion rate) after single SC dose in healthy volunteers; format: in vivo, human
Experimental: In all treatment periods, subjects undergo a euglycaemic clamp procedure for up to 24/36 hours following each insulin compound injection. Glucose infusion rates (GIR) are adjusted to maintain euglycaemia, with the documented GIR over time providing the GD measure of insulin action. The aim of the euglycaemic glucose clamp is to maintain euglycaemia through glucose infusion after the administration of a dose of an insulin compound. It is assumed that endogenous insulin secretion and hepatic glucose output are minimal and that any glucose that is translocated out of the glucose space (i.e., glucose metabolized) is the direct consequence of the administered exogenous insulin. The GIR in this case will be the glucodynamic (GD) measure of the insulin action over time. All glucose clamp studies are performed after an overnight fast of approximately 8 hours. On the morning of the study, a small catheter is placed into a vein of one arm, ideally in the ante-cubital fossa, for administration of 20% dextrose solution (buffered to near neutral pH) under the control of a volumetric pump. Another catheter is placed, ideally in the wrist or hand for venous glucose sampling. This area is heated with a warming device to approximately 55-60° C. for sampling arterialized venous blood. Blood samples are obtained at the bedside for immediate determination of whole blood glucose concentrations using an automated glucose oxidase technique. After basal blood sampling and a stabilization period of approximately 30 minutes, each subject receives a dose of insulin compound administered subcutaneously. The start of the subcutaneous injection of an insulin compound is defined as time zero. Following completion of dosing, in conjunction with frequent blood sampling for measurement of blood glucose, glucose is infused intravenously at a variable rate in order to maintain euglycaemia for up to 24 or 36 hours after insulin administration.
Blood sampling occurs approximately every 10 minutes for approximately 30 minutes prior to dosing and continued every 5-10 minutes for the first 2 hours after dosing (with the option to sample as frequently as every 2.5 minutes), and then reduced to 10-30 minute intervals up to the end of clamp.
During the glucose clamp, the glucose infusion rate is adjusted to maintain a pre-determined target blood glucose concentration for the individual subject. Preferably, the target concentration is close to the fasting blood glucose. The aim of the glucose clamp procedure is to maintain the blood glucose concentrations within +5% of the pre-dose target value, which is defined as 5 mg/dL below the mean fasting blood glucose. Thus, blood glucose concentrations are kept constant while the GIR varied. […]

[1] = calculated from published PK profiles; cited from earlier work

Row | Substance | GIR profile shape (healthy volunteers; Part C, 0.5 mg/kg) | time GD maintained (healthy volunteers; Part C, 0.5 mg/kg) | GIR compared with peak GIR response for glargine (healthy volunteers; Part C, 0.5 mg/kg, glargine 0.5 U/kg, data not shown) | duration of action compared with insulin glargine (healthy volunteers; humans, FIG. 2: LY 0.225 mg/kg, glargine 0.5 U/kg) | peak-trough (PT) ratio [1]
1 | LY: 20 kDa PEGylated insulin lispro, about 95% or more at B28 and 5% or less at A1, prepared as in Example 9 | “peakless” | greater than 36 hours | exceeded the peak GIR response for glargine | longer than that of insulin glargine | 
2 | glargine |  |  |  |  | 1.2-2.6
